Consider three molecules from patent publication US8722849B2, “Polypeptides” (Novo Nordisk A/S, priority 2011, dated 2014).

Values after ≈ are worked out from the molar mass of the structure shown. Where two headings read alike, the source gives them in different places. Starred links: 1 amine or outer side, 2 acyl side, 3 side chain; linkers in the order of their positions; H or OH if unused. Positions of bridges follow the written chain, without caps; N, C: chain ends. Residues, ends and D or L forms follow the SMILES beside them. *: point of attachment. C20 diacid = O=C(O)CCCCCCCCCCCCCCCCCCC(=O)*; C18 diacid = O=C(O)CCCCCCCCCCCCCCCCC(=O)*; γGlu = O=C(O)[C@H](CCC(=O)[*:2])N[*:1] Some results are limits rather than exact numbers.

In data set [1] the target is T1, human calcitonin receptor (Homo sapiens, UniProt P30988).
T1 construct: expressed in transfected cells; host or cells: BHK570
T1 sequence (P30988 25-474): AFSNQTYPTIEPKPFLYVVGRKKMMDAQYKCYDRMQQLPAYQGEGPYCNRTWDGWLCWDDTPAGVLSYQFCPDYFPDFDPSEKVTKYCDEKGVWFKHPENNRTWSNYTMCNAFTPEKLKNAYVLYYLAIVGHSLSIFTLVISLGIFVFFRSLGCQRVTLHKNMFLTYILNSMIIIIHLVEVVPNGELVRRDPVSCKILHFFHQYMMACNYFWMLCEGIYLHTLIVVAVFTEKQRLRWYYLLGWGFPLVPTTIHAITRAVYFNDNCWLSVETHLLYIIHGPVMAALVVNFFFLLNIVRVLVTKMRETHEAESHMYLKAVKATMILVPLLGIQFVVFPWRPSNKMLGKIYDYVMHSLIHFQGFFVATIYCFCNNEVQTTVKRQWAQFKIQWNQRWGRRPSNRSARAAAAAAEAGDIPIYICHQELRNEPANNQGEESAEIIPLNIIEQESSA
Put plainly: Assay (II)a functional CRE-luciferase assay, human calcitonin receptor. Type of data set: cell-based. As to conditions: Table 7; human calcitonin (CTa) receptor.

The target of data set [2] is T2, human amylin receptor (amylin 3(a) receptor: human calcitonin receptor + RAMP-3) (Homo sapiens, UniProt O60896+P30988).
T2 construct: expressed in transfected cells; host or cells: BHK570
T2 sequence (P30988 25-474): T1 sequence (P30988 25-474)
T2 sequence (O60896 24-148 partner): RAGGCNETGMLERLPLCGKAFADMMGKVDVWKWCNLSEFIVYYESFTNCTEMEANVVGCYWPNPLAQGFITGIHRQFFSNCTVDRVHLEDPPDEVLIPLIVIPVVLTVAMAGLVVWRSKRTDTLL
As to the kind of experiment: Assay (II)a functional CRE-luciferase assay, human amylin receptor. Type of data set: cell-based. As to conditions: Table 2; BHK amylin 3(a)-receptor/CRE-luc cells.

For data set [3], the target named is T3, rat amylin 3(a) receptor (rat calcitonin(a) receptor + rat RAMP3) (Rattus norvegicus, UniProt P32214+Q9JJ73).
T3 construct: expressed in transfected cells; host or cells: BHK tk'ts 13
T3 sequence (P32214 25-479 isoform P32214-2 limits assumed): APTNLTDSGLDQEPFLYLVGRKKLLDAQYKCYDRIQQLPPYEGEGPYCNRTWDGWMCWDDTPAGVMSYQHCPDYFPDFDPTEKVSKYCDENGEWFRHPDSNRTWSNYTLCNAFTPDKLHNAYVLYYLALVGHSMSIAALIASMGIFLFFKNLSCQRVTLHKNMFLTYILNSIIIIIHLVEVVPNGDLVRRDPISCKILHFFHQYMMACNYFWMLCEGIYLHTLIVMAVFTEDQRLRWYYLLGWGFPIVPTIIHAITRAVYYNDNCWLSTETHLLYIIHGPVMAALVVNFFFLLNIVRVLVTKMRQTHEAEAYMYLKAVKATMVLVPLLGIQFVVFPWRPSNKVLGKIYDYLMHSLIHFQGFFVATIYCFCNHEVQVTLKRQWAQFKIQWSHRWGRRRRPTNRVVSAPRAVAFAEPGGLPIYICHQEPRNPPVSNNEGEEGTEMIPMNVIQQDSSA
T3 sequence (Q9JJ73 23-147 partner): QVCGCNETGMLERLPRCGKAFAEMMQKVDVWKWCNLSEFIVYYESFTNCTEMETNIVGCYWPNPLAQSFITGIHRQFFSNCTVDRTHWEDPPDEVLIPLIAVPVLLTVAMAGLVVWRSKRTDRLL
Put plainly: Assay (II)b functional cAMP FlashPlate assay, rat amylin receptor. Type of data set: cell-based. As to conditions: Table 11. An outline of the steps: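 BHK tk'ts 13 cells transiently transfected with rat calcitonin(a) receptor, alone or with rat RAMP3 (amylin 3(a)), were stimulated 24 hours later with sample for 30 min in buffer containing IBMX. cAMP measured by competitive radioactive FlashPlate assay, scintillation read after 3 h detection incubation.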

Data set [4] is described as follows: Assay (IV) determination of solubility. Type of data set: physicochemical. The gist of the method:
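Polypeptide in water (~500 nmol/ml) mixed 1:1 with 100 mM glycylglycine (pH 3.0–5.0) or bistrispropane (pH 6.0–8.0) buffers. Held 18 hours at room temperature, then centrifuged. Polypeptide remaining in solution quantified by HPLC.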

[5] abbreviates: bistrispropane buffer, pH 6, pH 6.0, read-out: Solubility pH 6.0.
[6] abbreviates: bistrispropane buffer, pH 6.5, pH 6.5, read-out: Solubility pH 6.5.
The mark [7] stands for this setting: bistrispropane buffer, pH 7, pH 7.0, 18 hours at room temperature, Table 3, read-out: Solubility pH 7.0.
Where [8] appears, read: bistrispropane buffer, pH 7, pH 7.0, read-out: Solubility pH 7.0.
Where [9] appears, read: bistrispropane buffer, pH 7.5, pH 7.5, read-out: Solubility pH 7.5.
The mark [10] stands for this setting: bistrispropane buffer, pH 8, pH 8.0, read-out: Solubility pH 8.0.
The mark [11] stands for this setting: glycylglycine buffer, pH 3, pH 3.0, read-out: Solubility pH 3.0.
[12] abbreviates: glycylglycine buffer, pH 4, pH 4.0, 18 hours at room temperature, Table 2, read-out: Solubility pH 4.0.
Where [13] appears, read: glycylglycine buffer, pH 4, pH 4.0, read-out: Solubility pH 4.0.
The mark [14] stands for this setting: glycylglycine buffer, pH 5, pH 5.0, read-out: Solubility pH 5.0.

One may read the EC50 as the midpoint of the concentration-response curve. For orientation: solubility means how much of the substance goes into solution per volume.

For the molecule `CC[C@H](C)[C@H](NC(=O)[C@@H]1CCCN1C(=O)CNC(=O)[C@H](Cc1ccccc1)NC(=O)[C@H](CC(N)=O)NC(=O)[C@H](CC(N)=O)NC(=O)[C@H](CO)NC(=O)[C@H](CO)NC(=O)[C@H](Cc1c[nH]cn1)NC(=O)[C@H](Cc1c[nH]cn1)NC(=O)[C@H](CC(C)C)NC(=O)[C@H](Cc1ccccc1)NC(=O)[C@H](CCC(=O)O)NC(=O)[C@H](C)NC(=O)[C@H](CC(C)C)NC(=O)[C@H](CCCNC(=N)N)NC(=O)[C@H](CCC(N)=O)NC(=O)[C@@H](NC(=O)[C@H](C)NC(=O)[C@@H]1CSSC[C@H](NC(=O)[C@H](CCCCN)NC(=O)CC[C@H](NC(=O)CCCCCCCCCCCCCCCCC(=O)O)C(=O)O)C(=O)N[C@@H](CC(N)=O)C(=O)N[C@@H]([C@@H](C)O)C(=O)N[C@@H](C)C(=O)N[C@@H]([C@@H](C)O)C(=O)N1)[C@@H](C)O)C(=O)N[C@@H](CC(C)C)C(=O)N1CCC[C@H]1C(=O)N1CCC[C@H]1C(=O)N[C@H](C(=O)N[C@@H](CC(N)=O)C(=O)N[C@H](C(=O)NCC(=O)N[C@@H](CO)C(=O)N[C@@H](CC(N)=O)C(=O)N[C@H](C(=O)N[C@@H](Cc1ccc(O)cc1)C(N)=O)[C@@H](C)O)C(C)C)[C@@H](C)O` [Example 46, N-alpha-[(S)-4-Carboxy-4-(17-carboxyheptadecanoylamino)butyryl]-[Glu14,His17]-pramlintide] ({C18 diacid-γGlu}-KCNTATCATQRLAEFLHHSSNNFGPILPPTNVGSNTY-NH2; disulfide 2-7 (inferred); C-terminus assumed), the EC50 came out at 0.0792 nM in data set [1], 0.0469 nM in data set [2] and 0.122 nM in data set [3]. Besides, the solubility at 18 h was greater than 200 µM in data set [4] (setting [5]); greater than 200 µM in data set [4] (setting [6]); 169 µM (≈ 748 µg/mL) in data set [4] (setting [7]); 169 µM (≈ 748 µg/mL) in data set [4] (bistrispropane buffer, pH 7, pH 7.0, Table 8, read-out: Solubility pH 7.0); 169 µM (≈ 748 µg/mL) in data set [4] (setting [8]); 197 µM (≈ 872 µg/mL) in data set [4] (setting [9]). In addition, the solubility at 18 h in data set [4] (setting [10]), in data set [4] (setting [11]), in data set [4] (setting [12]), in data set [4] (setting [13]) and in data set [4] (setting [14]) was greater than 200 µM each time.
Consider `CC[C@H](C)[C@H](NC(=O)[C@@H]1CCCN1C(=O)CNC(=O)[C@H](Cc1ccccc1)NC(=O)[C@H](CC(N)=O)NC(=O)[C@H](CC(N)=O)NC(=O)[C@H](CO)NC(=O)[C@H](CO)NC(=O)[C@H](Cc1c[nH]cn1)NC(=O)[C@H](Cc1c[nH]cn1)NC(=O)[C@H](CC(C)C)NC(=O)[C@H](Cc1ccccc1)NC(=O)[C@H](CCC(=O)O)NC(=O)[C@H](C)NC(=O)[C@H](CC(C)C)NC(=O)[C@H](CCCNC(=N)N)NC(=O)[C@H](CCC(N)=O)NC(=O)[C@@H](NC(=O)[C@H](C)NC(=O)[C@@H]1CSSC[C@H](NC(=O)[C@H](CCCCN)NC(=O)[C@H](CCC(=O)O)NC(=O)CC[C@H](NC(=O)CCCCCCCCCCCCCCCCCCC(=O)O)C(=O)O)C(=O)N[C@@H](CC(N)=O)C(=O)N[C@@H]([C@@H](C)O)C(=O)N[C@@H](C)C(=O)N[C@@H]([C@@H](C)O)C(=O)N1)[C@@H](C)O)C(=O)N[C@@H](CC(C)C)C(=O)N1CCC[C@H]1C(=O)N1CCC[C@H]1C(=O)N[C@H](C(=O)N[C@@H](CC(N)=O)C(=O)N[C@H](C(=O)NCC(=O)N[C@@H](CO)C(=O)N[C@@H](CC(N)=O)C(=O)N[C@H](C(=O)N[C@@H](Cc1ccc(O)cc1)C(N)=O)[C@@H](C)O)C(C)C)[C@@H](C)O` [Example 26, N-alpha-[(S)-4-Carboxy-4-(19-carboxynonadecanoylamino)butyryl]-Glu-[Glu14,His17]-pramlintide] ({C20 diacid-γGlu}-EKCNTATCATQRLAEFLHHSSNNFGPILPPTNVGSNTY-NH2; disulfide 3-8 (inferred); C-terminus assumed), for which the EC50 in data set [1] was determined as 0.214 nM; in data set [2], 0.13 nM; in data set [3], 0.476 nM. The solubility at 18 h in data set [4] (setting [5]), in data set [4] (setting [6]), in data set [4] (setting [7]), in data set [4] (setting [8]), in data set [4] (setting [9]) and in data set [4] (setting [10]) was greater than 200 µM throughout. Also, the solubility at 18 h in data set [4] (setting [11]), in data set [4] (setting [12]), in data set [4] (setting [13]) and in data set [4] (setting [14]) was greater than 200 µM throughout.
Regarding `CC[C@H](C)[C@H](NC(=O)[C@@H]1CCCN1C(=O)CNC(=O)[C@H](Cc1ccccc1)NC(=O)[C@H](CC(N)=O)NC(=O)[C@H](CC(N)=O)NC(=O)[C@H](CO)NC(=O)[C@H](CO)NC(=O)[C@H](CCCNC(=N)N)NC(=O)[C@H](Cc1c[nH]cn1)NC(=O)[C@H](CC(C)C)NC(=O)[C@H](Cc1ccccc1)NC(=O)[C@H](CCC(=O)O)NC(=O)[C@H](C)NC(=O)[C@H](CC(C)C)NC(=O)[C@H](CCCNC(=N)N)NC(=O)[C@H](CCC(N)=O)NC(=O)[C@@H](NC(=O)[C@H](C)NC(=O)[C@@H]1CSSC[C@H](NC(=O)[C@H](Cc2c[nH]cn2)NC(=O)CC[C@H](NC(=O)CCCCCCCCCCCCCCCCCCC(=O)O)C(=O)O)C(=O)N[C@@H](CC(N)=O)C(=O)N[C@@H]([C@@H](C)O)C(=O)N[C@@H](C)C(=O)N[C@@H]([C@@H](C)O)C(=O)N1)[C@@H](C)O)C(=O)N[C@@H](CC(C)C)C(=O)N1CCC[C@H]1C(=O)N1CCC[C@H]1C(=O)N[C@H](C(=O)N[C@@H](CC(N)=O)C(=O)N[C@H](C(=O)NCC(=O)N[C@@H](CO)C(=O)N[C@@H](CC(N)=O)C(=O)N[C@H](C(=O)N[C@@H](Cc1ccc(O)cc1)C(N)=O)[C@@H](C)O)C(C)C)[C@@H](C)O` [Example 1, N-alpha-[(S)-4-Carboxy-4-(19-carboxynonadecanoylamino)butyryl]-[His1,Glu14,His17,Arg18]-pramlintide] ({C20 diacid-γGlu}-HCNTATCATQRLAEFLHRSSNNFGPILPPTNVGSNTY-NH2; disulfide 2-7 (inferred)), the concentration giving a half-maximal response (EC50) in data set [1] came out at 0.15 nM; in data set [2] it was 0.0934 nM; in data set [3] it was 0.0645 nM. Moreover, the solubility at 18 h was 52 µM (≈ 233 µg/mL) in data set [4] (setting [5]); 16 µM (≈ 71.7 µg/mL) in data set [4] (setting [6]); 15 µM (≈ 67.3 µg/mL) in data set [4] (setting [8]); 58 µM (≈ 260 µg/mL) in data set [4] (setting [9]); 138 µM (≈ 619 µg/mL) in data set [4] (setting [10]); greater than 200 µM in data set [4] (setting [11]). The solubility at 18 h in data set [4] (setting [12]), in data set [4] (setting [13]) and in data set [4] (setting [14]) was greater than 200 µM throughout.
